Reference: paper PMC7490411 (Signal Transduction and Targeted Therapy, 2020)

How the values were obtained:
REC-1 = assay: anti-proliferative CellTiter-Glo assay; type: cell-based; conditions: Homo sapiens, Rec1; REC-1, 72 h
Experimental: (§1) Cell viability was measured using the CellTiter–Glo assay (Promega, USA) according to the manufacturer’s instructions, and […] was measured in a Bio-red Microplate reader (Bio-Red, USA).

TMD8 = assay: anti-proliferative CellTiter-Glo assay; type: cell-based; conditions: Homo sapiens, TMD8, 72 h
Experimental: as §1

[1] = drug enrichment in the tumor; type: in vivo, mouse; conditions: 100 mg/kg
[2] = tested on: REC-1 cell (MCL)-inoculated xenograft; assay: REC-1 cell subcutaneous xenograft tumor model; type: in vivo; conditions: REC-1 xenograft, 100 mg/kg/day, 14 days
Ramos = assay: anti-proliferative CellTiter-Glo assay; type: cell-based; conditions: Homo sapiens, 72 h
Experimental: as §1

SU-DHL-6 = assay: anti-proliferative CellTiter-Glo assay; type: cell-based; conditions: Homo sapiens, SU-DHL-6, 72 h
Experimental: as §1

Raji = assay: anti-proliferative CellTiter-Glo assay; type: cell-based; conditions: Homo sapiens, 72 h
Experimental: as §1

JEKO-1 = assay: anti-proliferative CellTiter-Glo assay; type: cell-based; conditions: Homo sapiens, JeKo-1, 72 h
Experimental: as §1

Pfeiffer = assay: anti-proliferative CellTiter-Glo assay; type: cell-based; conditions: Homo sapiens, 72 h
Experimental: as §1

SU-DHL-2 = assay: anti-proliferative CellTiter-Glo assay; type: cell-based; conditions: Homo sapiens, SU-DHL-2, 72 h
Experimental: as §1

DOHH2 = assay: anti-proliferative CellTiter-Glo assay; type: cell-based; conditions: Homo sapiens, DOHH-2; DOHH2, 72 h
Experimental: as §1

WSU-DLCL2 = assay: anti-proliferative CellTiter-Glo assay; type: cell-based; conditions: Homo sapiens, WSUDLCL2; WSU-DLCL2, 72 h
Experimental: as §1

U2932 = assay: anti-proliferative CellTiter-Glo assay; type: cell-based; conditions: Homo sapiens, U2932, 72 h
Experimental: as §1

Mino cells = assay: NK-cell-mediated ADCC, LDH release cytotoxicity assay, Rituximab; type: cell-based, human
Experimental: (§2) The cytotoxicity of NK cells was measured using the CyQUANT™ LDH Cytotoxicity Assay Kit (Invitrogen™, #C20300) according to the manufacturer’s instructions. Briefly, enriched NK cells (6 × 10^5 /ml) were cultured with the same volume of Mino cell and SK-OV-3 cell (1-2 × 10^4 /ml) in a 96-well plate for 4 h with Rituximab and Herceptin (10 μg/mL) and CHMFL-BTK-85 or PCI32765 at 37°C in a humidified CO2 incubator prior to removal of the supernatant for lactate dehydrogenase (LDH) release measurements. Calculate % Cytotoxicity by using the following formula: %Cytotoxicity = (Compound-treated LDH activity-Spontaneous LDH activity)/(Maximum LDH activity-Spontaneous LDH activity)*100.

[3] = tested on: REC-1 cells bone marrow engraftment; assay: REC-1 cells bone marrow engrafted mouse model; type: in vivo; conditions: REC-1 bone marrow engraftment, 100 mg/kg/day p.o.
Experimental: Five-week old female NOD-SCID mice were purchased from the Beijing Vital River Laboratory Animal Technology Co., Ltd (Beijing, China). All animals were housed in a specific pathogen free facility and used according to the animal care regulations of Hefei Institutes of Physical Science, Chinese Academy of Sciences. NOD-SCID mice were induced by intraperitoneal injection of cyclophosphamide (CTX) 50 mg/kg daily for two days. 8 million REC-1 cells in 0.3 mL RPMI1640 medium were injected by intravenous after 24 h. […] Mice were monitored daily and were euthanized when moribund or at early signs of hind limb paralysis.

SK-OV-3 cells = assay: NK-cell-mediated ADCC, LDH release cytotoxicity assay, Herceptin; type: cell-based, human
Experimental: as §2

[4] = tested on: TMD8 cell (DLBCL)-inoculated xenograft; assay: TMD8 cell subcutaneous xenograft tumor model; type: in vivo; conditions: TMD8 xenograft, 100 mg/kg/day, 28 days

| SMILES | GI50 (REC-1) [nM] | GI50 (TMD8) [nM] | concentration in the tumor [1] [µM] | TGI [2] [%] | GI50 (Ramos) [µM] | GI50 (SU-DHL-6) [nM] | GI50 (Raji) [µM] | GI50 (JEKO-1) [nM] | GI50 (Pfeiffer) [nM] | GI50 (SU-DHL-2) [µM] | GI50 (DOHH2) [nM] | GI50 (WSU-DLCL2) [nM] | GI50 (U2932) [nM] | effect on antibody-dependent NK-cell-mediated cytotoxicity (ADCC) (Mino cells) | median survival time [3] [days] | effect on antibody-dependent NK-cell-mediated cytotoxicity (ADCC) (SK-OV-3 cells) | TGI [4] [%] |
| --- | --- | --- | --- | --- | --- | --- | --- | --- | --- | --- | --- | --- | --- | --- | --- | --- | --- |
| CC#CC(=O)N1CCC[C@H]1c1nc(-c2ccc(C(=O)Nc3ccccn3)cc2)c2c(N)nccn12 [Acalabrutinib] | 30 ± 2 | 20 ± 3 | 1.30 | 58 | – | – | – | – | – | – | – | – | – | – | – | – | – |
| C=CC(=O)N1CCC[C@@H](n2nc(-c3ccc(Oc4ccccc4)cc3)c3c(N)ncnc32)C1 [Ibrutinib, reference compound] | 30 ± 21 | 1 ± 0.1 | 1.23 | 59 | 3.8 ± 0.66 | 370 ± 55 | 6.1 ± 1.8 | 2000 ± 150 | 1200 ± 120 | 4.9 ± 0.2 | 260 ± 180 | 180 ± 100 | 1400 ± 1200 | significantly impaired | 39 | significantly impaired | 90 |
